Assay results as given in PMC7699745, “The Search for New Anticonvulsants in a Group of (2,5-Dioxopyrrolidin-1-yl)(phenyl)Acetamides with Hybrid Structure—Synthesis and In Vivo/In Vitro Studies” (International Journal of Molecular Sciences, 2020).
Values joined by “and” are separate entries in the source; they are usually repeats but may differ in a detail not shown here. Equal values may be shown once. Read-outs that look alike come from different tables or passages of the source.

What was measured:
Potassium channel (hERG) = molecular target: T1, Potassium channel (hERG) (Homo sapiens, UniProt Q12809); test: Binding, potassium channel (hERG); details: 100 µM; human recombinant (HEK-293 cells)
T1 construct: Eurofins (Poitiers, France), contract assay
Method: (§1) Taking into consideration the structural similarities of molecules described in the current manuscript with their chemical prototypes AS-1 and DK-1, the binding studies toward aforementioned molecular targets were performed commercially for several active substances from each subseries (3, 4, 21, 24, 25, 27, 29, and 30). Furthermore, we also tested two other and well-known targets for AEDs, namely, the Cav2.2 (N-type) calcium channel and gamma-aminobutyric acid (GABA)-A receptor. With the aim of excluding potentially dangerous proarrhythmic properties for each compound, their interaction with the potassium (hERG) channel was also tested.
(§2) Binding studies were carried out commercially in Eurofines Laboratories (Poitiers, France). The functional assays were performed in Eurofins Panlabs Discovery Services Taiwan, Ltd. (New Taipei City, Taiwan). All procedures are described elsewhere (for details, see Table S4 in Supplementary Materials).
(§3) Binding studies were carried out commercially in Eurofines Laboratories (Poitiers, France). The
(§4) functional assays were performed in Eurofins Panlabs Discovery Services Taiwan, Ltd. (New Taipei
(§5) City, Taiwan). All procedures are described elsewhere (Table S4).
(§6) Table S4. In vitro binding and functional assays.
(§7) GABA-A receptor (α1,β2,γ2)
(§8) Potassium channel (hERG) 14
(§9) Cav1.2 (h) calcium ion channel cell based antagonist calcium flux assay 16,17

Cav2.2 channel = molecular target: T2, Cav2.2 channel (Rattus norvegicus, UniProt Q02294); test: Radioligand binding, Cav2.2 channel; design: dose or concentration left out as unconfirmed; details: rat cerebral cortex; read-out: % Inhibition of Control Specific Binding, Cav2.2 Channel (Antagonist Radioligand)
T2 construct: tissue Eurofins (Poitiers, France), contract assay; host or cells: rat cerebral cortex (own knowledge of the vendor's assay)
Method: as §1, §2, §3, §4, §5, §6, §7, §8, §9

hepatoma HepG2 cells = test: Hepatotoxicity, MTS cell viability assay; format: cell-based; details: 100 µM, 72 h
Method: The hepatotoxicity assessment was done with use of hepatoma HepG2 cells, which were incubated for 72 h in the presence of 1–100 µM concentrations of 4, 24, and 30. The CellTiter 96® aqueous nonradioactive cell proliferation assay (MTS) purchased from Promega (Madison, WI, USA) was used for determination of cell viability. The absorbance was measured using a microplate reader EnSpire (PerkinElmer, Waltham, MA, USA) at 492 nm. The obtained results confirmed the safety of the investigated series.
These studies were performed on hepatoma HepG2 cells, according to a protocol reported previously

[1] = Metabolic stability in human liver microsomes; format: in vitro ADME; details: 120 min incubation with HLMs
Description: Human liver microsomes (HLMs) were used for metabolic stability determination. Moreover, the most probable phase I reactions and structures of metabolites were proposed according to ion fragment analyses with the in silico support of MetaSite 6.0.1 software. […] On the other hand, an excellent metabolic stability of compound 24 was observed. Less than 4% of this derivative was converted into double-hydroxylated metabolite M1 (Figures S3, S4, and S7, Supplementary Materials). Finally, two monohydroxylated metabolites (M1, M2) were found in the reaction mixture with HLMs and 30, and around 17% of this compound was metabolized (Figures S5–S7, Supplementary Materials).
These assays were performed on human liver microsomes (HLMs), purchased from Sigma-Aldrich (St. Louis, MO, USA), according to [14].

[2] = tested on: formalin-induced nociceptive response, mice; test: Formalin test of tonic pain; format: in vivo; details: for ED50: Mus musculus, ip, i.p. 30 min before test
Method: AEDs are also commonly used in the treatment of neuropathic pain and other central pain conditions. Therefore, with an aim of further pharmacological characterization of compounds described herein, we decided to study their antinociceptive properties in the in vivo assays. […] At first, both aforementioned compounds were tested in the formalin-induced tonic pain model, which is recognized as a valuable screening tool. In this test, the injection of formalin into the plantar surface of the mouse paw produces specific behaviors like paw lifting, flinching, and licking. […] Moreover, it has been reported that formalin induces pathological changes that resemble those observed in nerve injury and neuropathic pain [24]. Thus, this test has been successfully used to assess the analgesic efficacy of a variety of compounds such as opioids, nonsteroidal anti-inflammatory drugs (NSAIDs), corticosteroids, and N-methyl-D-aspartate (NMDA) receptor antagonists, as well as AEDs such as carbamazepine, topiramate, or gabapentin [26, 27].
As mentioned above, we investigated the analgesic properties of two of the most promising and interesting compounds: 4 and 30.
The experimental groups consisted of 6–12 adult male Albino Swiss mice (CD-1, 18–25 g). Each animal was tested only once. Immediately after the assay, the animals were sacrificed by cervical dislocation. Behavioral measurements were observed by trained observers. The in vivo antinociceptive assays were in accordance with Polish regulations and European Union Directive of 22 September 2010 (2010/63/EU). All procedures were carried out according to the rules of the International Council on Laboratory Animal Science (ICLAS) and were approved by the Local Ethical Committee in Cracow, Poland (approval No 104/2015, 111/2016, and 179/2017). The tested substances were suspended in 1% aqueous solution of Tween-80 and were injected i.p. 30 min prior to the test. Control group animals (negative control) were administered with an appropriate amount of vehicle (Tween-80, 1% aqueous solution, i.p.) 30 min prior to the test.
The experimental in vivo procedures were previously reported for the formalin test; compounds 4 and 30 were tested in three doses—40, 80, 120 mg/kg (4), and 20, 40, 80 mg/kg (30). […] The in vivo procedure for the model of capsaicin-induced nociception was previously reported; the animals were pretreated with vehicle (10 mL/kg, negative control) and the dose–response of investigated compounds was evaluated at 40, 80, 120 mg/kg (4), and 20, 40, 80 mg/kg (30). […]
Data are presented as means ± standard error of the mean (SEM). […] Statistically significant differences between groups were calculated using one-way analysis of variance (ANOVA) and the post hoc Dunnett’s multiple comparison test or two-way analysis of variance (ANOVA). […]

[3] = phase II 15–30 min, read-out: ED50, formalin test phase II

T2 sequence (Q02294 whole entry): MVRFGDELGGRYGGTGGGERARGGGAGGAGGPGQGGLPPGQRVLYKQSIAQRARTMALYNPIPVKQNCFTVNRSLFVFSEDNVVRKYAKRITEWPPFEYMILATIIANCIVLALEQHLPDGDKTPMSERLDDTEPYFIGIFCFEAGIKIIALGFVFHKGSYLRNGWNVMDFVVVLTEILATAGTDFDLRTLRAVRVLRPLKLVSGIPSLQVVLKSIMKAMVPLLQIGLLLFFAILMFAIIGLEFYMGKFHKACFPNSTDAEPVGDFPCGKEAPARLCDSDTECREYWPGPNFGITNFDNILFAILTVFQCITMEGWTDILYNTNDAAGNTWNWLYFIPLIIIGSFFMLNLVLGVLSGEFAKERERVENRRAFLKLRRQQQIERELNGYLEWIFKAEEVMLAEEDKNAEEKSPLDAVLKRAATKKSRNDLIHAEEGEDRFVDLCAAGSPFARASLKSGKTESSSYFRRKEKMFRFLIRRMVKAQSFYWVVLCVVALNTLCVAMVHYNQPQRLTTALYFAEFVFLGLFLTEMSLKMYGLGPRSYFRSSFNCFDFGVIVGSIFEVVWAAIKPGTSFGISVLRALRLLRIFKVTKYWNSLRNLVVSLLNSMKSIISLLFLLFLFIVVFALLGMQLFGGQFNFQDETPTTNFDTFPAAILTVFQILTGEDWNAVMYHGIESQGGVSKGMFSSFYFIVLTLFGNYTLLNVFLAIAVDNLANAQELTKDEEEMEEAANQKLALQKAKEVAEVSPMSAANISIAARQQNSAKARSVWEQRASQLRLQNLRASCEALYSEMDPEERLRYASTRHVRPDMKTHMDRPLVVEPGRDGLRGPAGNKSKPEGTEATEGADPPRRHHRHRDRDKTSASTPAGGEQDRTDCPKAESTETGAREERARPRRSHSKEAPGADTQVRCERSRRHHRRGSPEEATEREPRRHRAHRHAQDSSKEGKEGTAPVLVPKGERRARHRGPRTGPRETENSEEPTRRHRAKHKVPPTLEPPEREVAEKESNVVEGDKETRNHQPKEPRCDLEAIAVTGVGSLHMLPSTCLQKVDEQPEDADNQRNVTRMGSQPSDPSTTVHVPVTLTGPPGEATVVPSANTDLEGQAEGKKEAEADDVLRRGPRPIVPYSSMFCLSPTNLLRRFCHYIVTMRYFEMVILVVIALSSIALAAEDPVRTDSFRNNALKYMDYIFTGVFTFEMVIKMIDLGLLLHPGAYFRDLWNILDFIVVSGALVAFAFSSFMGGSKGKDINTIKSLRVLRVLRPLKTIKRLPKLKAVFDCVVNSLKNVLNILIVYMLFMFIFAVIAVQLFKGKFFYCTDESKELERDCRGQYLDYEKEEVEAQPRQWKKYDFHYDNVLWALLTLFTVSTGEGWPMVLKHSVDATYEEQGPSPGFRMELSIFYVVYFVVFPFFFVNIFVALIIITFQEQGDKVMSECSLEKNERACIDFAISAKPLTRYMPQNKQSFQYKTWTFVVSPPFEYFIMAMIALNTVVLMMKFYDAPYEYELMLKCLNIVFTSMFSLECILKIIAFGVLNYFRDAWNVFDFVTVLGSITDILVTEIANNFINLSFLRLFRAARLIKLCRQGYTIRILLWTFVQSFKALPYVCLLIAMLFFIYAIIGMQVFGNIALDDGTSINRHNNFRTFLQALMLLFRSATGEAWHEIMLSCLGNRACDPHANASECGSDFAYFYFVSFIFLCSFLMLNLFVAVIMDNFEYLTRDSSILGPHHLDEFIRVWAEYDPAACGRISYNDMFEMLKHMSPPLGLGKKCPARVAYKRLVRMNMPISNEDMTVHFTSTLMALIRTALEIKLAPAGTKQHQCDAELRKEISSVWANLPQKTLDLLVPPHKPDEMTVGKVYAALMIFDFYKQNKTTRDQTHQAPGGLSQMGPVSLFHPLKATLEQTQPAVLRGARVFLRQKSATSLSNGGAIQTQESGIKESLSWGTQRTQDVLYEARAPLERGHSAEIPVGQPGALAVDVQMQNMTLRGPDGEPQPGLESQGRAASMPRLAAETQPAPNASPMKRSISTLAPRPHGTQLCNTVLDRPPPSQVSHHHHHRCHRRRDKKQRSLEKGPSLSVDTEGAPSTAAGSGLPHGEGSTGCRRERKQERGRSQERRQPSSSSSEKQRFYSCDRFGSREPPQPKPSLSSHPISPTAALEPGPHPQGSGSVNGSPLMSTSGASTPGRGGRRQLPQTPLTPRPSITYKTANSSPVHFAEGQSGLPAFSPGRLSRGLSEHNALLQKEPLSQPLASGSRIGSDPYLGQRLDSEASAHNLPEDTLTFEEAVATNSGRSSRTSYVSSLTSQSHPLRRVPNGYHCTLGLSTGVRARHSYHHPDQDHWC
T2 sequence (P54287 whole entry partner): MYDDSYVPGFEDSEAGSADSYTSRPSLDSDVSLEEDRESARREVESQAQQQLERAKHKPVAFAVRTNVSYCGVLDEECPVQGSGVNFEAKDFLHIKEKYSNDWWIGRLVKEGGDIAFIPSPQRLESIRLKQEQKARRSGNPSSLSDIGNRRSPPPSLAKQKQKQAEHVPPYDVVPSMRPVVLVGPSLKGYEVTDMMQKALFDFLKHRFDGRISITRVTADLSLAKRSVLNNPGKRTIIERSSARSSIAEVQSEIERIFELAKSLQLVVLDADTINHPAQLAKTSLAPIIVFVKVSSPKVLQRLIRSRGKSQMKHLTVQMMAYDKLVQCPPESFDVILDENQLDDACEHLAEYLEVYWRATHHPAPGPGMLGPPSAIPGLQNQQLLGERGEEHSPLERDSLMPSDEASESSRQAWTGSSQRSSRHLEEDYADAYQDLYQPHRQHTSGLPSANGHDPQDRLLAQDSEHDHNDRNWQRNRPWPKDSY
T2 sequence (P54290 25-944 partner limits assumed): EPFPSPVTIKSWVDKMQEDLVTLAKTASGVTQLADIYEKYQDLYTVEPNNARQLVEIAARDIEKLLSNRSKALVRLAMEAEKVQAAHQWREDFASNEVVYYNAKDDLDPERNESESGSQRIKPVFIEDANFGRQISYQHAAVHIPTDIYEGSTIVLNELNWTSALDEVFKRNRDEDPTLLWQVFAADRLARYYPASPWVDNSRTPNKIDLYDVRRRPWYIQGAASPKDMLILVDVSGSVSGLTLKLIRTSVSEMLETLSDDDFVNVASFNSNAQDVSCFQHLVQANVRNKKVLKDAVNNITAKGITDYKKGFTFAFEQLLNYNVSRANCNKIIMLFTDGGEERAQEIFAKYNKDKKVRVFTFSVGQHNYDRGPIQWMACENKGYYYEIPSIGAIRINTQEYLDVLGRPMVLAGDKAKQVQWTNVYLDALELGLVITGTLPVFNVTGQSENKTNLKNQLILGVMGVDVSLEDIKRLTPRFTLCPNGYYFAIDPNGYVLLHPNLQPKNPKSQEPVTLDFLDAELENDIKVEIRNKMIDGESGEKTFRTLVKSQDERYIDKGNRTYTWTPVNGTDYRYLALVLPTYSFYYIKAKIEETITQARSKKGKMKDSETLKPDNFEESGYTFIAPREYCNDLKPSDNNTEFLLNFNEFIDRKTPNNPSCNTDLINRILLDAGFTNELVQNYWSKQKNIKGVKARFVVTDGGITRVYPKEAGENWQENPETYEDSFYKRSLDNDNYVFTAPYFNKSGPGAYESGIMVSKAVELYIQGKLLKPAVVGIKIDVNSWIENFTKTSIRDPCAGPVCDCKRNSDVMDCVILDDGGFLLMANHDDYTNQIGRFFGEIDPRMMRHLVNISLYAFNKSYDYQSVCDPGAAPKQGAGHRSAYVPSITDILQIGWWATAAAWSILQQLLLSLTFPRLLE
T2 sequence (P54290 945-1091 partner limits assumed): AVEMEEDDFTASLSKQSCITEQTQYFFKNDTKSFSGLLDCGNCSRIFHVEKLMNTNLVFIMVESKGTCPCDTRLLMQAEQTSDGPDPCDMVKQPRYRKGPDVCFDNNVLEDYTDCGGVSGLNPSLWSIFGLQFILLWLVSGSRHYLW
T1 sequence (Q12809 whole entry): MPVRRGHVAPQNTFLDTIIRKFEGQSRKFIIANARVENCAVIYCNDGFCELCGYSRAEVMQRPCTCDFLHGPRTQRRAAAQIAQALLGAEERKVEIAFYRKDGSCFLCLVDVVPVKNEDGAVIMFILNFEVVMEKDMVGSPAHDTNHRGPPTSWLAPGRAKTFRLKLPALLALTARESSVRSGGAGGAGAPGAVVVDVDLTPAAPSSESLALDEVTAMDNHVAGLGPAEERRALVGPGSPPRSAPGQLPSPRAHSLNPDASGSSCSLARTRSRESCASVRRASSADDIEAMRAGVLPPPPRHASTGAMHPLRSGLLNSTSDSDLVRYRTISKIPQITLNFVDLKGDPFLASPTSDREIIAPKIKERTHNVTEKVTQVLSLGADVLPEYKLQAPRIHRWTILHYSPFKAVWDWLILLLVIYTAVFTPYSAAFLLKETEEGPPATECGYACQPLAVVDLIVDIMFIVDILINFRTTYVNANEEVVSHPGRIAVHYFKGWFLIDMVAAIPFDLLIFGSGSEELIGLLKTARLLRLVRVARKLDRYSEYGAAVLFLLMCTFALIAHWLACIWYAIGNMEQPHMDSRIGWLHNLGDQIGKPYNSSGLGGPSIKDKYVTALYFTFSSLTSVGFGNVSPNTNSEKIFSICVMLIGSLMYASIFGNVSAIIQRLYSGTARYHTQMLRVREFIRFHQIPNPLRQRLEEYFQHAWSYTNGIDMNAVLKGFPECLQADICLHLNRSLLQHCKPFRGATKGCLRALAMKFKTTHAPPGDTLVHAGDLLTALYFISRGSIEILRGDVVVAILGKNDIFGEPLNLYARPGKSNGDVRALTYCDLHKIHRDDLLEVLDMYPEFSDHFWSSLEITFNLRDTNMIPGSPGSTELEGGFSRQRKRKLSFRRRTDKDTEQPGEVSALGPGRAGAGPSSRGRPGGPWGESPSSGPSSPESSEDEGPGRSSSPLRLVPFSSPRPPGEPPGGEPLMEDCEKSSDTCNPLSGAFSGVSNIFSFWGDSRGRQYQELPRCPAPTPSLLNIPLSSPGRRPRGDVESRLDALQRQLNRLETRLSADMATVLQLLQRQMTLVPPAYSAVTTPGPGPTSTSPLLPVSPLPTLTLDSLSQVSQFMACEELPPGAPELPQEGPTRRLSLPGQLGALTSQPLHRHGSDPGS

| SMILES | % Inhibition of Control Specific Binding, Potassium Channel (hERG) (Potassium channel (hERG)) | inhibition (Cav2.2 channel) | effect on HepG2 cells viability (hepatoma HepG2 cells) | compound converted into metabolites / metabolized [1] | parent compound remained in the reaction mixture [1] | ED50 ([2]; phase I 0–5 min, read-out: ED50, formalin test phase I) | ED50 [2, 3] | attenuation of nociceptive response, formalin test first phase ([2]; i.p., doses 40, 80, 120 mg/kg) |
| --- | --- | --- | --- | --- | --- | --- | --- | --- |
| O=C(NCCc1cccc(OC(F)(F)F)c1)C(c1ccccc1)N1C(=O)CCC1=O (stereo not drawn) [Compound 30, 2-(2,5-Dioxopyrrolidin-1-yl)-2-phenyl-N-(3-(trifluoromethoxy)phenethyl)acetamide] | 1.7% | 4% | statistically significant (p < 0.001) effect on cells viability | around 17% | 83.39% | 21.5 mg/kg | 24.8 mg/kg |  |
| O=C(Nc1ccccc1F)C(c1ccccc1)N1C(=O)CCC1=O (stereo not drawn) [Compound 4, 2-(2,5-Dioxopyrrolidin-1-yl)-N-(2-fluorophenyl)-2-phenylacetamide] | 2.3% | 1.1% |  |  | 71.44% and 71.4% |  | 98.9 mg/kg | statistically significant only at the highest dose of 120 mg/kg |
